Experimental data from US20170312260A1 (LAUNX BIOMEDICAL CO., LTD., priority 2014, published 2017).
Values joined by “and” are separate entries in the source; they are usually repeats but may differ in a detail not shown here. Equal values may be shown once. Read-outs that look alike come from different tables or passages of the source.

How the values were obtained:
[1] = test system: A549 (lung adenocarcinoma); assay: WST-1 cell viability analysis, A549; assay type: cell-based; conditions: Homo sapiens
Protocol: (§1) The cell numbers were counted and reseed as 2×10^6 in cell culture plate/flask. Then, the culture medium were added to a volume of 10 ml, and the cells were cultured for 2-3 days. Then, the cells were suspended for loading into 96-well plates. The number of cells was 3000 and the volume of the culture medium was 100 μl each well.
(§2) Removing the original culture medium from 96-well plate. Then add 100 μl of commercially drug at a concentration of 10 μM per well. After 72 hours, add the diluted WST-1 reagent to the well with 100 μl/well, and the diluted WST-1 reagent was acquired from the dilution of 9:1 medium and WST-1 stock reagent. Finally, the total volume of each well was 200 μl/well. Culture the 96-well plate at 37° C. for 30 to 90 minutes. Detecting and calculate the survival rate of each cancer cells with an ELISA reader at OD450 nm.

[2] = test system: H1650 (lung adenocarcinoma); assay: WST-1 cell viability analysis, H1650; assay type: cell-based; conditions: Homo sapiens
Protocol: as §1, §2

[3] = test system: bladder cancer cell line T24; assay: WST-1 cell viability analysis, T24; assay type: cell-based; conditions: Homo sapiens
Protocol: as §1
as §2, with “Culture the 96-well plate at 37° C. for 30 to 90 minutes.” left out

[4] = test system: HeLa (Cervix Adenocarcinoma); assay: WST-1 cell viability analysis, HeLa; assay type: cell-based; conditions: Homo sapiens
Protocol: as §1, §2

[5] = test system: 786-O (Renal adenocarcinoma); assay: WST-1 cell viability analysis, 786-O; assay type: cell-based; conditions: Homo sapiens
Protocol: as §1, §2

[6] = test system: breast cancer cell line MDA-MB-231; assay: WST-1 cell viability analysis, MDA-MB-231; assay type: cell-based; conditions: Homo sapiens
[7] = test system: ovarian cancer cell line TOV-21G; assay: WST-1 cell viability analysis, TOV-21G; assay type: cell-based; conditions: Homo sapiens, TOV21G
Protocol: as §1, §2

[8] = test system: HepG2 (hepatocellular carcinoma); assay: WST-1 cell viability analysis, HepG2; assay type: cell-based; conditions: Homo sapiens, HepG2, 10 μM, 72 hours, read-out: viability (survival rate) of HepG2 cells
[9] = test system: osteosarcoma cell line U2OS; assay: WST-1 cell viability analysis, U2OS; assay type: cell-based; conditions: Homo sapiens
Protocol: as §1, §2

[10] = test system: A375 (amelanotic melanoma); assay: WST-1 cell viability analysis, A375; assay type: cell-based; conditions: Homo sapiens, A-375, 10 μM, 72 hours, read-out: viability (survival rate) of A375 cells
[11] = WST-1 cell viability analysis, HEK293; assay type: cell-based; conditions: human
Protocol: as §1, §2

[12] = test system: cervical cancer cells; assay: Summary of cell viability, cervical cancer; assay type: cell-based; conditions: 72 hours, summary for cervical cancer, read-out: Inhibitory effect, cervical cancer
Protocol: as §1, §2
(§3) As a result in the experiments of the present invention.

[13] = test system: gastric cancer cells; assay: Summary of cell viability, gastric cancer; assay type: cell-based; conditions: 72 hours, summary over the gastric cancer cell lines, read-out: Inhibitory effect, gastric cancer
Protocol: as §1, §2, §3

[14] = Animal model test, body weight and health status of mice; assay type: in vivo, female mice (BALB/cAnN.Cg-Foxn1^nu/CrlNarl); conditions: for weight: single mice A-C
Protocol: In this invention, the female mice were (BALB/cAnN.Cg-Foxn1^nu/CrlNarl) purchased from National Laboratory Animal Center (Taiwan)). The weight of the mice were 21±1 g. These mice were subcutaneously injected with gastric cancer cells (AGS) and then put these mice into different cages at random. The drug test experiment was divided into three groups, include “normal control group”, “low dose group (100 mg/kg/day)”, and “high dose group (200 mg/kg/day)”. These mice were then injected test drug intraperitoneally once daily […]. The tumor sizes and body weight were measured twice a week. The tumor sizes were measured and calculated by formula: (L×W^2)/2. L represents the tumor longest length. W represents the tumor shortest diameter.

`CC1=C(C(=O)OC(C)C)C(c2cccc([N+](=O)[O-])c2)C(C(=O)OC2CN(C(c3ccccc3)c3ccccc3)C2)=C(N)N1` (centres unmarked) [Azelnidipine] showed a viability at 10 µM ([1]; A549, 10 μM, 72 hours, run 0524-10 min, read-out: viability (survival rate) of A549 cells) of 81.4%, a viability at 10 µM ([1]; A549, 10 μM, 72 hours, run 0526-10 min, read-out: viability (survival rate) of A549 cells) of 119% and a viability at 10 µM ([1]; A549, 10 μM, 72 hours, run 0529-10 min, read-out: viability (survival rate) of A549 cells) of 69.7%. For the same compound, the viability at 10 µM ([1]; A549, 10 μM, 72 hours, run 0531-10 min, read-out: viability (survival rate) of A549 cells) was 80.2%, the viability at 10 µM ([1]; A549, 72 h, 10 μM, average of 4 tests, read-out: Average viability of A549 cells) was 87.5% and the viability at 10 µM ([2]; NCI-H1650, 10 μM, 72 hours, run 1-10 min, read-out: viability (survival rate) of H1650 cells) was 28.8%. It also gave a viability at 10 µM ([2]; NCI-H1650, 10 μM, 72 hours, run 2-20 min, read-out: viability (survival rate) of H1650 cells) of 26.5%, a viability at 10 µM ([2]; NCI-H1650, 10 μM, 72 hours, run 3-20 min, read-out: viability (survival rate) of H1650 cells) of 40.5% and a viability at 10 µM ([2]; NCI-H1650, 10 μM, 72 hours, run 4-20 min, read-out: viability (survival rate) of H1650 cells) of 62.7%. It also gave a viability at 10 µM ([2]; NCI-H1650, 72 h, 10 μM, average of 4 tests, read-out: Average viability of H1650 cells) of 39.7%, a viability at 10 µM ([3]; T-24, 10 μM, 72 hours, run 1-30 min, read-out: viability (survival rate) of T24 cells) of 110% and a viability at 10 µM ([3]; T-24, 10 μM, 72 hours, run 2-20 min, read-out: viability (survival rate) of T24 cells) of 75.3%. For the same compound, the viability at 10 µM ([3]; T-24, 10 μM, 72 hours, run 3-20 min, read-out: viability (survival rate) of T24 cells) was 30.4%, the viability at 10 µM ([3]; T-24, 10 μM, 72 hours, run 4-20 min, read-out: viability (survival rate) of T24 cells) was 102% and the viability at 10 µM ([3]; T-24, 72 h, 10 μM, average of 4 tests, read-out: average viability of T24 cells) was 79.5%. The viability at 10 µM ([4]; 72 h, average of 4 tests, read-out: Average viability of HeLa cells) was 87%, the viability at 10 µM ([4]; 72 hours, run 0524-10 min, read-out: viability (survival rate) of HeLa cells) was 70.4% and the viability at 10 µM ([4]; 72 hours, run 0526-10 min, read-out: viability (survival rate) of HeLa cells) was 93.7%. It also gave a viability at 10 µM ([4]; 72 hours, run 0529-10 min, read-out: viability (survival rate) of HeLa cells) of 81.4%, a viability at 10 µM ([4]; 72 hours, run 0531-10 min, read-out: viability (survival rate) of HeLa cells) of 103% and a viability at 10 µM ([5]; 786-0, 10 μM, 72 hours, run 0524-10 min, read-out: viability (survival rate) of 786-O cells) of 88.6%. It also gave a viability at 10 µM ([5]; 786-0, 10 μM, 72 hours, run 0526-10 min, read-out: viability (survival rate) of 786-O cells) of 79.7%, a viability at 10 µM ([5]; 786-0, 10 μM, 72 hours, run 0529-10 min, read-out: viability (survival rate) of 786-O cells) of 66.5% and a viability at 10 µM ([5]; 786-0, 10 μM, 72 hours, run 0531-10 min, read-out: viability (survival rate) of 786-O cells) of 112%. The viability at 10 µM ([5]; 786-0, 72 h, 10 μM, average of 4 tests, read-out: average viability of 786-O cells) was 86.8%, the viability at 10 µM ([5]; 786-0, 72 h, 10 μM, summary (786-O), read-out: Inhibitory effect, Kidney cancer) was 86.8% and the viability at 10 µM ([6]; MDA-MB-231, 10 μM, 72 hours, run 0612-10 min, read-out: viability (survival rate) of MDA-MB-231 cells) was 70.3%. It also gave a viability at 10 µM ([6]; MDA-MB-231, 10 μM, 72 hours, run 0614-10 min, read-out: viability (survival rate) of MDA-MB-231 cells) of 89.7%, a viability at 10 µM ([6]; MDA-MB-231, 72 h, 10 μM, average of the 3 printed tests, read-out: average viability of MDA-MB-231 cells) of 86.9% and a viability at 10 µM ([7]; 72 h, average of 4 tests, read-out: average viability of TOV-21G cells) of 27.2%. The viability at 10 µM ([7]; 72 hours, run 4-30 min, read-out: viability (survival rate) of TOV-21G cells) was 60.1%, the viability at 10 µM ([7]; 72 hours, run 7-3-30 min, read-out: viability (survival rate) of TOV-21G cells) was 15.6% and the viability at 10 µM ([7]; 72 hours, run 7-4-30 min, read-out: viability (survival rate) of TOV-21G cells) was 13.3%. For the same compound, the viability at 10 µM ([7]; 72 hours, run 7-7-30 min, read-out: viability (survival rate) of TOV-21G cells) was 19.6%, the viability at 10 µM ([8]; run 0524-20 min) was 110% and the viability at 10 µM ([8]; run 0526-20 min) was 87.2%. The viability at 10 µM ([8]; run 0529-20 min) was 112%, the viability at 10 µM ([8]; run 0531-20 min) was 93.7% and the viability at 10 µM ([9]; 72 h, summary (U2OS), read-out: Inhibitory effect, osteosarcoma) was 69.4%. It also gave a viability at 10 µM ([9]; 72 hours, run 6-26-10 min, read-out: viability (survival rate) of U2OS cells) of 53.3%, a viability at 10 µM ([9]; 72 hours, run 6-28-10 min, read-out: viability (survival rate) of U2OS cells) of 78.3% and a viability at 10 µM ([9]; 72 hours, run 6-30-10 min, read-out: viability (survival rate) of U2OS cells) of 84.8%. For the same compound, the viability at 10 µM ([9]; 72 hours, run 7-3-10 min, read-out: viability (survival rate) of U2OS cells) was 61.2%, the viability at 10 µM ([10]; run 0602-30 min) was 124% and the viability at 10 µM ([10]; run 0607-10 min) was 76%. For the same compound, the viability at 10 µM ([10]; run 0609-10 min) was 105%, the viability at 72 h, 10 µM ([11]; HEK293 cells (normal kidney cell line), summary (HEK293), read-out: Inhibitory effect, Normal cell: Kidney cell) was 94.2% and the viability at 72 h, 10 µM ([11]; HEK293 normal kidney cells, average of 4 tests, read-out: Average viability of HEK293 cells) was 94.2%. The viability at 10 µM [12] was 87%, the viability at 10 µM [13] was 115% and the “health status / death of tested mice during the treatment (in words)” value ([14]; both high and low doses) was “without death”. For the same compound, the weight ([14]; high dose (200 mg/kg/day) i.p., Fifth measurement, 200 mg/kg/day) was 20 g and 21 g, the weight ([14]; high dose (200 mg/kg/day) i.p., First measurement, 200 mg/kg/day) was 20 g and 19.5 g and the weight ([14]; high dose (200 mg/kg/day) i.p., Fourth measurement, 200 mg/kg/day) was 20 g and 21 g. The weight ([14]; high dose (200 mg/kg/day) i.p., Second measurement, 200 mg/kg/day) was 19 g and 20 g, the weight ([14]; high dose (200 mg/kg/day) i.p., Third measurement, 200 mg/kg/day) was 20.5 g and 19 g and 20 g and the weight ([14]; low dose (100 mg/kg/day) i.p., Fifth measurement, 100 mg/kg/day) was 20 g and 21 g. The weight ([14]; low dose (100 mg/kg/day) i.p., First measurement) was 21 g, the weight ([14]; low dose (100 mg/kg/day) i.p., Fourth measurement, 100 mg/kg/day) was 20 g and 21 g and the weight ([14]; low dose (100 mg/kg/day) i.p., Second measurement, 100 mg/kg/day) was 20 g and 19 g. The weight ([14]; low dose (100 mg/kg/day) i.p., Third measurement, 100 mg/kg/day) was 19.5 g and 19 g and 18.5 g and the “weight of mice during the experiment (in words)” value ([14]; low dose and high dose) was “did not show a significant decrease”.
